Laboratory results as given in patent US4387218A, “Anthracycline antibiotics FA-1180 B and B1, or salts thereof” (priority 1979, dated 1983).
In brackets after ≈: the same amount, converted by molar mass. Where a name gives a salt, the structure may show the parent alone. Read-outs that look alike come from different tables or passages of the source.

Key:
[1] = test system: Bacillus subtilis PCI 219; test: minimum inhibitory concentration (MIC) by the agar dilution method, Bacillus subtilis PCI 219; assay type: cell-based; settings: Brain heart infusion agar, 18 hrs after inoculation
Description: (§1) The minimum inhibitory concentration (MIC) of the FA-118O A, A1, B or B1 was determined by the agar dilution method, and the results are indicated in Table 5 below.
(§2) (1) Medium: Brain heart infusion agar
(§3) (2) Determined: 18 hrs after inoculation

[2] = test system: Salmonella typhimurium IFO 12529; test: minimum inhibitory concentration (MIC) by the agar dilution method, Salmonella typhimurium IFO 12529; assay type: cell-based; settings: Brain heart infusion agar, 18 hrs after inoculation
Description: as §1, §2, §3

[3] = test system: Staphylococcus aureus; test: minimum inhibitory concentration (MIC) by the agar dilution method, Staphylococcus aureus; assay type: cell-based; settings: Brain heart infusion agar, 18 hrs after inoculation
Description: as §1, §2, §3

[4] = test system: Gram-positive bacteria; test: ability to inhibit the growth of Gram-positive bacteria (summary statement); assay type: cell-based; settings: summary in words
Description: as §1

[5] = test system: P-388 Mice Leukemia; test: therapeutic effect against P-388 Mice Leukemia; assay type: in vivo; settings: daily on days 1 to 5, 1×10^6 P-388 cells intraperitoneally
Description: (§4) The test was conducted in accordance with the method described in Cancer Chemotherapy Reports, Part 3, Vol. 3, No. 2, p. 9, September 1972. Mice inoculated intraperitoneally with 1×10^6 cells of P-388 were administered with the test compounds daily on days 1 to 5. The activity (T/C) of the test compounds is represented by the ratio of the median survival time of the treated group to that of the control group.

[6] = test system: Candida albicans; test: minimum inhibitory concentration (MIC) by the agar dilution method, Candida albicans; assay type: cell-based; settings: Brain heart infusion agar, 18 hrs after inoculation
Description: as §1, §2, §3

[7] = test system: tumor; test: antitumor activity (summary statement); settings: summary in words
Description: as §4
(§5) The tumor cell suspension was prepared from cells taken from ascites of rats to which 1×10^6 cells of Yoshida rat sarcoma had been inoculated before 3 to 5 days. The ascites was diluted with a medium which was constituted from 80 to 90% (v/v) Fischer's solution containing 20 to 10% (v/v) desensitized horse serum. One half milliliter of the cell suspension containing 5~20×10^4 cells thus prepared was placed in a small test tube. A substance to be tested was dissolved and diluted with the same medium and 0.5 ml of the diluted solution was added to the cell suspension. To the control tube was added 0.5 ml of the medium. 2 to 5 tubes were used for each experimental units. They were incubated statically at 37° C. for 2 to 3 days. After the incubation, growth was measured by observing the quantity of precipitated cells on the bottom of the test tube with the naked eyes. Growth inhibitory effect of a substance was expressed by the concentration pointing 50 percent growth of the control growth.

[8] = test system: Escherichia coli W3110; test: minimum inhibitory concentration (MIC) by the agar dilution method, Escherichia coli W3110; assay type: cell-based; settings: Brain heart infusion agar, 18 hrs after inoculation
Description: as §1, §2, §3

[9] = test system: Pseudomonas aeruginosa H; test: minimum inhibitory concentration (MIC) by the agar dilution method, Pseudomonas aeruginosa H; assay type: cell-based; settings: Brain heart infusion agar, 18 hrs after inoculation
Description: as §1, §2, §3

[10] = test system: Bacillus subtilis 17 A; test: minimum inhibitory concentration (MIC) by the agar dilution method, Bacillus subtilis 17 A; assay type: cell-based; settings: Brain heart infusion agar, 18 hrs after inoculation
Description: as §1, §2, §3

[11] = test system: Staphylococcus aureus 209 P; test: minimum inhibitory concentration (MIC) by the agar dilution method, Staphylococcus aureus 209 P; assay type: cell-based; settings: Brain heart infusion agar, 18 hrs after inoculation
Description: as §1, §2, §3

[12] = test system: Serratia marcescens IFO 12648; test: minimum inhibitory concentration (MIC) by the agar dilution method, Serratia marcescens IFO 12648; assay type: cell-based; settings: 18 hrs after inoculation
Description: as §1, §2, §3

[13] = test system: Bacillus subtilis 45 T; test: minimum inhibitory concentration (MIC) by the agar dilution method, Bacillus subtilis 45 T; assay type: cell-based; settings: Brain heart infusion agar, 18 hrs after inoculation
Description: as §1, §2, §3

[14] = test system: Yoshida rat sarcoma; test: growth inhibitory effect on Yoshida rat sarcoma cells; assay type: cell-based; settings: for IC50: Rattus norvegicus, YOSHIDA, read-out: Growth Inhibitory Effect IC50
Description: as §5
IC50 : The concentration pointing 50% growth of the control growth.

[15] = test system: Klebsiella pneumoniae IFO 3512; test: minimum inhibitory concentration (MIC) by the agar dilution method, Klebsiella pneumoniae IFO 3512; assay type: cell-based; settings: 18 hrs after inoculation
Description: as §1, §2, §3

[16] = test system: Escherichia coli NIHJ; test: minimum inhibitory concentration (MIC) by the agar dilution method, Escherichia coli NIHJ; assay type: cell-based; settings: Brain heart infusion agar, 18 hrs after inoculation
Description: as §1, §2, §3

[17] = test system: Escherichia coli P3478; test: minimum inhibitory concentration (MIC) by the agar dilution method, Escherichia coli P3478; assay type: cell-based; settings: Brain heart infusion agar, 18 hrs after inoculation
Description: as §1, §2, §3

[18] = test system: Bacillus cereus IAM 1729; test: minimum inhibitory concentration (MIC) by the agar dilution method, Bacillus cereus IAM 1729; assay type: cell-based; settings: IAM1729, Brain heart infusion agar, 18 hrs after inoculation
Description: as §1, §2, §3

[19] = Solubility; assay type: physicochemical
[20] = concentration pointing 50% growth of the control growth, 37° C., 2 to 3 days, Fischer's solution with horse serum
[21] = Bacillus subtilis, PCI219, 18 h, read-out: MIC
[22] = Salmonella enterica, read-out: MIC
[23] = IFO12648, Brain heart infusion agar, read-out: MIC
[24] = IFO3512, Brain heart infusion agar, read-out: MIC

Row | Structure (SMILES) | MIC [1] [ppm] | MIC [2] [ppm] | MIC [3] [ppm] | ability to inhibit the growth of Gram-positive bacteria [4] | Activity (T/C), ratio of median survival time of treated group to control group ([5]; 0.25 mg/kg/day) [%] | Activity (T/C), ratio of median survival time of treated group to control group ([5]; 0.5 mg/kg/day) [%] | Activity (T/C), ratio of median survival time of treated group to control group ([5]; 1.0 mg/kg/day) [%] | MIC [6] [ppm] | antitumor activity [7] | MIC [8] [ppm] | MIC [9] [ppm] | MIC [10] [ppm] | MIC [11] [ppm] | MIC ([12]; Brain heart infusion agar) [ppm] | MIC [13] [ppm] | Growth Inhibitory Effect IC50 [14, 20] | MIC ([15]; Brain heart infusion agar) [ppm] | MIC [16] [ppm] | MIC [17] [ppm] | MIC [1, 21] [µg/mL] | other results
1 | CC(O)CC(OC(C)CO)OC1C(N)CC(OC2CC(O)(C(C)O)Cc3c(O)c4c(c(O)c32)C(=O)c2c(O)cccc2C4=O)OC1C (centres unmarked) [FA-1180 B1] | 3.125 | > 100 | 50 | strong ability to inhibit the growth of Gram-positive bacteria | 151 | 168 | 179 | > 100 | antitumor activity | > 100 | > 100 | 12.5 | 50 | > 100 | 0.4 | 10^-2 μg/ml | > 100 | > 100 | > 100 |  | 
2 | CC(O)CC(OC(C)CO)OC1C(N)CC(OC2CC(O)(C(C)O)Cc3c(O)c4c(c(O)c32)C(=O)c2c(O)cccc2C4=O)OC1C (centres unmarked) [FA-1180 B] |  |  |  | strong ability to inhibit the growth of Gram-positive bacteria | 143 | 162 | 190 |  | antitumor activity |  |  |  |  |  |  |  |  |  |  | 6.25 (≈ 9.45 µM) | MIC [18]: 25 µg/mL (≈ 37.8 µM); MIC [2, 22]: > 100 µg/mL; MIC ([3]; read-out: MIC): 50 µg/mL (≈ 75.6 µM); Solubility in chloroform [19]: soluble; Solubility in methanol [19]: freely soluble; Solubility in n-hexane [19]: slightly soluble; MIC ([6]; read-out: MIC): > 100 µg/mL; MIC ([8]; read-out: MIC): > 100 µg/mL; MIC ([9]; read-out: MIC): > 100 µg/mL; MIC ([10]; read-out: MIC): 12.5 µg/mL (≈ 18.9 µM); MIC ([11]; read-out: MIC): 50 µg/mL (≈ 75.6 µM); MIC [12, 23]: > 100 µg/mL; MIC ([13]; read-out: MIC): 0.4 µg/mL (≈ 0.605 µM); IC50 [14, 20]: 0.01 µg/mL (≈ 0.0151 µM); MIC [15, 24]: > 100 µg/mL; MIC ([16]; read-out: MIC): > 100 µg/mL; MIC ([17]; read-out: MIC): > 100 µg/mL
3 | O=c1[nH]cc(F)c(=O)[nH]1 [5-FU, reference compound] |  |  |  |  |  |  |  |  |  |  |  |  |  |  |  |  |  |  |  |  | Activity (T/C), ratio of median survival time of treated group to control group ([5]; 20 mg/kg/day): 198%
4 | COc1cccc2c1C(=O)c1c(O)c3c(c(O)c1C2=O)C[C@@](O)(C(=O)CO)C[C@@H]3O[C@H]1C[C@H](N)[C@H](O)[C@H](C)O1 [Adriamycin hydrochloride, reference compound] |  |  |  |  |  |  |  |  |  |  |  |  |  |  |  |  |  |  |  |  | IC50 [14]: 0.01 µg/mL
5 | CC(=O)C1(O)Cc2c(O)c3c(c(O)c2C(OC2CC(N)C(OC(CC(C)O)OC(C)CO)C(C)O2)C1)C(=O)c1c(O)cccc1C3=O (centres unmarked) [FA-1180 A] |  |  |  | strong ability to inhibit the growth of Gram-positive bacteria | 148 | 167 | 205 |  | antitumor activity |  |  |  |  |  |  | 10^-2 μg/ml |  |  |  | 1.56 (≈ 2.36 µM) | MIC [18]: 3.12 µg/mL (≈ 4.74 µM); MIC [2, 22]: > 100 µg/mL; MIC ([3]; read-out: MIC): 12.5 µg/mL (≈ 18.9 µM); Solubility in chloroform [19]: soluble; Solubility in methanol [19]: freely soluble; Solubility in n-hexane [19]: slightly soluble; MIC ([6]; read-out: MIC): > 100 µg/mL; MIC ([8]; read-out: MIC): > 100 µg/mL; MIC ([9]; read-out: MIC): > 100 µg/mL; MIC ([10]; read-out: MIC): 1.56 µg/mL (≈ 2.36 µM); MIC ([11]; read-out: MIC): 12.5 µg/mL (≈ 18.9 µM); MIC [12, 23]: > 100 µg/mL; MIC ([13]; read-out: MIC): < 0.2 µg/mL; MIC [15, 24]: > 100 µg/mL; MIC ([16]; read-out: MIC): > 100 µg/mL; MIC ([17]; read-out: MIC): > 100 µg/mL
6 | CC(=O)C1(O)Cc2c(O)c3c(c(O)c2C(OC2CC(N)C(OC(CC(C)O)OC(C)CO)C(C)O2)C1)C(=O)c1c(O)cccc1C3=O (centres unmarked) [FA-1180 A1] | 1.56 | > 100 | 12.5 | strong ability to inhibit the growth of Gram-positive bacteria |  |  |  | > 100 | antitumor activity | > 100 | > 100 | 1.56 | 12.5 | > 100 | < 0.2 | 10^-3 μg/ml | > 100 | > 100 | > 100 |  | 
